Drawing on US20090062301A1, “PHARMACEUTICAL COMBINATION COMPOSITION COMPRISING AT LEAST ONE PKC INHIBITOR AND AT LEAST ONE JA K3 KINASE INHIBITOR FOR TREATING AUTOIMMUNE DISORDERS” (priority 2006, published 2009), this text covers EC50 and graft survival for two compounds.

The test concerns donor heart graft (rejection). In words: Rat heart transplantation (graft survival). In kind it is in vivo, rat (Male Lewis and BN). The text has this: A. Rat Heart Transplantation
The strain combination used: Male Lewis (RT^1 haplotype) and BN (RT^1 haplotype). The animals are anaesthetised using inhalational isofluorane. […] The aorta is ligated and divided distal to the first branch and the brachiocephalic trunk is divided at the first bifurcation. The left pulmonary artery is ligated and divided and the right side divided but left open. All other vessels are dissected free, ligated and divided and the donor heart is removed into iced saline.
The recipient is prepared by dissection and cross-clamping of the infra-renal abdominal aorta and vena cava. The graft is implanted with end-to-side anastomoses, using 10/0 monofilament suture, between the donor brachiocephalic trunk and the recipient aorta and the donor right pulmonary artery to the recipient vena cava. The clamps are removed, the graft tethered retroabdominally, the abdominal contents washed with warm saline and the animal is closed and allowed to recover under a heating lamp. Graft survival is monitored by daily palpation of the beating donor heart through the abdominal wall. Rejection is considered to be complete when heart beat stops.

As to `C[C@@H]1CCN(C(=O)CC#N)C[C@@H]1N(C)c1ncnc2[nH]ccc12` [CP-690,550, 3-{(3R,4R)-4-methyl-3-[methyl-(7H-pyrrolo[2,3-d]pyrimidin-4-yl)-amino]-piperidin-1-yl}-3-oxo-propionitrile], under “672 h, rat heart transplantation, CP-690,550 in mono-citrate salt form, concentration in blood, read-out: EC50 (drug concentration in blood at which 50% of the animals maintain their graft for >28 days)”, the EC50 came to 0.06 µg/mL. For the same compound, the graft survival result (rat heart transplantation, Compound A in the acetate form at 1 to 30 mg/kg/day and CP-690,550 mono-citrate at an EC50 of 60 ng/ml) is “significantly increase the graft survival”.

As for `CN1CCN(c2nc(C3=C(c4c[nH]c5ccccc45)C(=O)NC3=O)c3ccccc3n2)CC1` [Compound A, 3-(1.H.-indol-3-yl)-4-[2-(4-methyl-piperazin-1-yl)-quinazolin-4-yl]-pyrrole-2,5-dione], the graft survival entry (rat, in vivo) is listed as “significantly increase the graft survival”.
